# Patent US9200269B2, “β-glucuronidase inhibitor” (priority 2007, dated 2015)
# Experiments:
# [1] = system: β-glucuronidase activity derived from microbial cells grown in the putrefied urine; experiment: Inhibition of β-glucuronidase activity derived from urine putrefying microbial cell (putrefied urine supernatant, PNPG); type: biochemical; conditions: 0.01 wt % in reaction solution; room temperature, 24 hours
# Description: A putrefied urine product, which was prepared by collecting 20 mL of a urine sample, dispensing the sample in a bottle which had been preliminarily subjected to γ-ray sterilization without performing any microbe removing operation and storing the resultant at room temperature for 7 days, was used. 1 mL of the putrefied urine was centrifuged at 10,000 rpm for 5 minutes, and separated into a microbial cell and a supernatant. The precipitated microbial cell was suspended in 0.5 mL of saline. The supernatant was subjected to sterilizing through a 0.2-μm filter.
# 250 μL of a 2 mM PNPG aqueous solution, 100 μL of a 0.5 M phosphate buffer (pH 6.8), […] of a 10 wt % 8-cyclohexadecen-1-one DPG solution and 100 μL of ion exchanged water were mixed in a bottle γ-ray sterilized in advance, and subsequently 50 μL of the putrefied urine supernatant sample in Reference Example 3 were added. The mixture was allowed to react at room temperature. […]
# The above-mentioned reaction solution immediately after the start of the reaction and after 24 hours of reaction was diluted with a 0.2 M glycine buffer (pH 10.4) and measured for its absorbance at a wavelength of 400 nm. A value obtained by subtracting the absorbance immediately after the start from the absorbance after 24 hours of reaction was used as an index of a β-glucuronidase activity.
# [2] = biological target: T1, β-glucuronidase (Escherichia coli, UniProt P05804); experiment: Suppression of production of volatile compound from urine with added β-glucuronidase (GC-MS); type: biochemical; conditions: 0.01 wt %; human urine plus enzyme, 25° C., 22 hours
# T1 construct: purchased Sigma-Aldrich Corporation
# Description: 9.9 mL of a human urine sample (a mixture of urine from five humans), from which microorganisms were filtered with a 0.2-μm filter (Millex GV manufactured by Millipore Corporation) were added to a bottle which had been preliminarily subjected to γ-ray sterilization immediately after the collection, and subsequently 0.1 mL of an Escherichia coli-derived β-glucuronidase Type VII-A (purchased from Sigma-Aldrich Corporation) aqueous solution adjusted to 250 units/mL was added and mixed. The mixture was incubated in a thermostat bath at 25° C. and allowed to react for 22 hours. An initial urine sample prepared by adding 0.1 mL of sterilized ion exchanged water as substitution of the enzyme solution, was similarly incubated in a thermostat bath for 22 hours.
# 9.9 mL of a human urine sample (a mixture of urine from five humans) which had been subjected to a microbe-removing operation with a 0.2-μm filter immediately after the collection and 10 μL of a 10 wt % 8-cyclohexadecen-1-one DPG solution were added to a bottle γ-ray sterilized in advance, and subsequently 0.1 mL of a […] aqueous solution adjusted to 250 units/mL was added and mixed. The mixture was incubated in a thermostat bath at 25° C. and allowed to react for 22 hours. The concentration of 8-cyclohexadecen-1-one in the reaction solution was 0.01 wt %. Further, a product prepared by adding 0.1 mL of an enzyme solution to 9.9 mL of the microbe-removed urine sample was used as a control, a product prepared by adding 0.1 mL of ion exchanged water to 9.9 mL of the microbe-removed urine sample was used as a blank, and the respective products were allowed to react for 22 hours in the same manner.
# After the completion of the reaction, to 9 mL of the reaction solution, a benzyl benzoate ethanol solution was added as an internal standard. The mixture was extracted twice with 10 mL of diethyl ether. The extracted solutions were combined and dried over anhydrous magnesium sulfate. After drying, a solid was separated by filtration, and the filtrate was concentrated with a rotary evaporator to prepare a sample for measurement.
# Measurement was performed with a gas chromatograph mass spectrometer. The production amount of the volatile compound detected was calculated as a peak area ratio with respect to an internal standard. The production suppression rate for each of volatile components was determined by using the obtained value in accordance with the following equation. Production amount of control=Peak area ratio of control—Peak area ratio of blank Production amount of sample=Peak area ratio of sample−Peak area ratio of blank Production suppression rate (%)=[(Production amount of control −Production amount of sample)/Production amount of control]×100
# [3] = biological target: T1, β-glucuronidase; experiment: Suppression of generation of urine odor in enzyme-added urine, sensory evaluation; conditions: 0.01 wt %; human urine plus enzyme, 25° C., 2 hours; six panelists
# Description: Sensory evaluation of odor was performed by six panelists, the evaluation was based on a six-level odor intensity indication method in which the odor intensity was indicated with an evaluation score of 0 to 5. In the evaluation score, “0” indicates no odor, “1” indicates odor which can be slightly perceived (detection threshold), “2” indicates odor which can be perceived to be urine odor but is weak (perception threshold), “3” indicates odor which can be easily perceived to be urine odor, “4” indicates strong urine odor, and “5” indicates extreme urine odor. The odor intensity was determined at an interval of 0.5.
# 360 μL of a human urine sample (a mixture of urine from five humans), which had been subjected to a microbe-removing operation with a 0.2-μm filter immediately after the collection, and […] of a 10 wt % 8-cyclohexadecen-1-one DPG solution were added to a bottle γ-ray sterilized in advance, and subsequently 40 μL of a β-glucuronidase aqueous solution adjusted to 20 units/mL was added and mixed. The mixture was incubated in a thermostat bath at 25° C. and allowed to react for 2 hours. The concentration of 8-cyclohexadecen-1-one in the reaction solution was 0.01 wt %. […]
# T1 sequence (P05804 whole entry): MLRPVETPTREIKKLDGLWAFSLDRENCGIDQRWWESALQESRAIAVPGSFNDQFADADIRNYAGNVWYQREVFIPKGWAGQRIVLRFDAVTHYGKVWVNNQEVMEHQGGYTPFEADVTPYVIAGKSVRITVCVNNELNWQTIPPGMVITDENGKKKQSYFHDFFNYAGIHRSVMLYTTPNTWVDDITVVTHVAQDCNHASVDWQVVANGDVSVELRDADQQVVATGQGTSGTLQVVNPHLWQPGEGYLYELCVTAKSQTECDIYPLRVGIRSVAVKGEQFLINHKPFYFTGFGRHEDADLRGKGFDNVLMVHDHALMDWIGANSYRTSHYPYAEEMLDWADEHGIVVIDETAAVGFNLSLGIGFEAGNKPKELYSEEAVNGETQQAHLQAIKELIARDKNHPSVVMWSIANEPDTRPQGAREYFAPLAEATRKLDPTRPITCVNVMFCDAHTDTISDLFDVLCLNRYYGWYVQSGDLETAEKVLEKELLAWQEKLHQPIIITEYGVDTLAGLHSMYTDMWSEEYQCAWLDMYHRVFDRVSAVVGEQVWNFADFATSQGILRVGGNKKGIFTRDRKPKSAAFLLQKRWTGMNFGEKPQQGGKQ
smiles,measurement,setting,value
"O=C1CCCCCCC=CCCCCCCC1 [8-Cyclohexadecen-1-one, 8-cyclohexadecen-1-one]","β-glucuronidase activity of putrefied urine supernatant (result in words, FIG. 4)",[1],suppressed the β-glucuronidase activity
same,Production of phenol-based compounds and indole from urine (result in words),[2],suppressed the production of all of phenol-based compounds and indole
same,"Production suppression rate (%) of 1,3-Benzenediol",[2],100%
same,"Production suppression rate (%) of 1,4-Benzenediol",[2],73%
same,"Production suppression rate (%) of 2-Methoxy-1,3-benzenediol",[2],73%
same,Production suppression rate (%) of 4-Vinyl-2-methoxyphenol,[2],55%
same,Production suppression rate (%) of 4-Vinylphenol,[2],57%
same,Production suppression rate (%) of Indole,[2],57%
same,Production suppression rate (%) of Phenol,[2],70%
same,Production suppression rate (%) of p-Cresol,[2],63%
same,"Generation of urine odor, sensory evaluation (result in words, FIG. 5)",[3],sensuously suppressed the generation of urine odor
